Earlier results in patent US20240115593A1, “METHISOPRINOL COMPOSITIONS” (priority 2020, published 2024).

Conditions: water solution without additional 1-dimethylaminopropan-2-ol 4-acetamidobenzoate, stored at +20° C. to +2° C.

Methisoprinol
time after which Methisoprinol crystallizes out: 6 days
